Measured values reported in patent US20240228507A1, “GREEN SOLVENTS FOR CHEMICAL REACTIONS” (ECOLE POLYTECHNIQUE FÉDÉRALE DE LAUSANNE (EPFL), priority 2021, published 2024).

How the values were obtained:
Assay type in all cases: physicochemical
[1] = Kamlet-Abboud-Taft solvatochromic parameters (dye absorption spectra); details: Table 1a
Text: Determination of the Kamlet-Abboud-Taft parameters was based on the absorption spectrum of two dyes (N,N-diethyl-4-nitroaniline and 4-nitroaniline) in different solvents, that allow calculating corresponding values using known procedures (P. G. Jessop, D. A. Jessop, D. Fu and L. Phan, Green Chem., 2012, 14, 1245-1259).

[2] = Miscibility with different solvents; parameters: key: “*” indicating—not miscible; details: Table 1d; blank cell = miscible
[3] = Stability under acidic conditions; details: 0.8M HCl
[4] = Stability of DFX under basic conditions (GC-FID/GC-MS, colour change); parameters: key to Reaction (Y/N): *Reaction (Y/N) means color change compared to blank solution.; *Reaction (Y/N) means color change compared to blank solution
Method: To assess DFX stability under basic conditions, we tested a series of organic and inorganic bases at 80° C. and 110° C. for maximum 48 h (Table 6). Visual color change compared to a blank solution of pure DFX indicated some reactions were occurring. After 0.5 h, 24 h, 48 h of exposure, the samples were injected in GC-FID and GC-MS and the area of DFX was compared with the one in blank sample using decane as the internal standard. As a result of this experiment, we identified some potential limitations of this emerging solvent. Specifically, inorganic bases such as K2CO3, NaOH, CsCO3 led to the highest extent of degradation (maximum 21% after 48 h). Triethylamine (NEt3) caused less than 5% of degradation, but led to the formation of dark solution as well as K2CO3, NaOH, CsCO3. Probably, impurities existing in DFX (95% pure) also contribute to a color change as they could interact with bases.

[5] = Stability under hydrogenation conditions
Method: It is important to note that, DFX was stable under hydrogenation conditions (40 bar of H2, 70° C., 24 h), thus it can be used in reactions requiring high pressure of H2, elevated temperature, and/or long reaction time, which is a very desirable property for biomass-derived solvents.
40 bar of H2, 70° C., 24 h • 2. 40 bar of H2, 250° C., 3 h

[6] = CsCO3 (base cell blank, row r16), 80° C., 0.5 h
[7] = CsCO3 (base cell blank, row r16), 80° C., 24 h
[8] = CsCO3 (base cell blank, row r16), 80° C., 48 h
[9] = CsCO3 (base cell blank, row r17), 110° C., 0.5 h
[10] = CsCO3 (base cell blank, row r17), 110° C., 24 h
[11] = CsCO3 (base cell blank, row r17), 110° C., 48 h
[12] = CsCO3, 110° C. (row r15), 0.5 h

C1OC[C@H]2O[C@@H]3OCO[C@@H]3[C@H]2O1 [DFX, Diformylxylose]
Kamlet-Taft Parameters Π* [1]: 0.92 | Miscibility with Cyclohexane [2]: * | Miscibility with Hexane [2]: * | Miscibility with di-n-butyl ether [2]: * | DFX recovered ([3]; 70 to 95° C., no formaldehyde): more than 80% | DFX stable ([3]; formaldehyde added): around 90% | DFX degradation [4, 6]: 1% | Reaction (Y/N) [4, 6]: Y | DFX degradation [4, 7]: 4% | Reaction (Y/N) [4, 7]: Y | DFX degradation [4, 8]: 8% | Reaction (Y/N) [4, 8]: Y | DFX degradation [4, 9]: 1% | Reaction (Y/N) [4, 9]: Y | DFX degradation [4, 10]: 7% | Reaction (Y/N) [4, 10]: Y | DFX degradation [4, 11]: 11% | Reaction (Y/N) [4, 11]: Y | DFX degradation [4, 12]: 3% | Reaction (Y/N) [4, 12]: Y | DFX degradation ([4]; CsCO3, 110° C. (row r15), 24 h): 11% | Reaction (Y/N) ([4]; CsCO3, 110° C. (row r15), 24 h): Y | DFX degradation ([4]; CsCO3, 110° C. (row r15), 48 h): 21% | Reaction (Y/N) ([4]; CsCO3, 110° C. (row r15), 48 h): Y | DFX degradation ([4]; K2CO3, 80° C., 0.5 h): 2% | Reaction (Y/N) ([4]; K2CO3, 80° C., 0.5 h): Y | DFX degradation ([4]; K2CO3, 80° C., 24 h): 3% | Reaction (Y/N) ([4]; K2CO3, 80° C., 24 h): Y | DFX degradation ([4]; K2CO3, 80° C., 48 h): 7% | Reaction (Y/N) ([4]; K2CO3, 80° C., 48 h): Y | DFX degradation ([4]; K2CO3, 110° C., 0.5 h): 2% | Reaction (Y/N) ([4]; K2CO3, 110° C., 0.5 h): Y | DFX degradation ([4]; K2CO3, 110° C., 24 h): 5% | Reaction (Y/N) ([4]; K2CO3, 110° C., 24 h): Y | DFX degradation ([4]; K2CO3, 110° C., 48 h): 13% | Reaction (Y/N) ([4]; K2CO3, 110° C., 48 h): Y | DFX degradation ([4]; KOAc, 80° C., 0.5 h): 0% | Reaction (Y/N) ([4]; KOAc, 80° C., 0.5 h): N | DFX degradation ([4]; KOAc, 80° C., 24 h): 2% | Reaction (Y/N) ([4]; KOAc, 80° C., 24 h): N | DFX degradation ([4]; KOAc, 80° C., 48 h): 3% | Reaction (Y/N) ([4]; KOAc, 80° C., 48 h): N | DFX degradation ([4]; KOAc, 110° C., 0.5 h): 1% | Reaction (Y/N) ([4]; KOAc, 110° C., 0.5 h): Y | DFX degradation ([4]; KOAc, 110° C., 24 h): 3% | Reaction (Y/N) ([4]; KOAc, 110° C., 24 h): Y | DFX degradation ([4]; KOAc, 110° C., 48 h): 5% | Reaction (Y/N) ([4]; KOAc, 110° C., 48 h): Y | DFX degradation ([4]; NEt3, 80° C., 0.5 h): 3% | Reaction (Y/N) ([4]; NEt3, 80° C., 0.5 h): Y | DFX degradation ([4]; NEt3, 80° C., 24 h): 4% | Reaction (Y/N) ([4]; NEt3, 80° C., 24 h): Y | DFX degradation ([4]; NEt3, 80° C., 48 h): 5% | Reaction (Y/N) ([4]; NEt3, 80° C., 48 h): Y | DFX degradation ([4]; NaOH, 80° C., 0.5 h): 0% | Reaction (Y/N) ([4]; NaOH, 80° C., 0.5 h): Y | DFX degradation ([4]; NaOH, 80° C., 24 h): 9% | Reaction (Y/N) ([4]; NaOH, 80° C., 24 h): Y | DFX degradation ([4]; NaOH, 80° C., 48 h): 17% | Reaction (Y/N) ([4]; NaOH, 80° C., 48 h): Y | DFX degradation ([4]; Pyridine, 80° C., 0.5 h): 0% | Reaction (Y/N) ([4]; Pyridine, 80° C., 0.5 h): N | DFX degradation ([4]; Pyridine, 80° C., 24 h): 0% | Reaction (Y/N) ([4]; Pyridine, 80° C., 24 h): N | DFX degradation ([4]; Pyridine, 80° C., 48 h): 0% | Reaction (Y/N) ([4]; Pyridine, 80° C., 48 h): N | DFX degradation ([4]; Pyridine, 110° C., 0.5 h): 0% | Reaction (Y/N) ([4]; Pyridine, 110° C., 0.5 h): N | DFX degradation ([4]; Pyridine, 110° C., 24 h): 3% | Reaction (Y/N) ([4]; Pyridine, 110° C., 24 h): Y | DFX degradation ([4]; Pyridine, 110° C., 48 h): 6% | Reaction (Y/N) ([4]; Pyridine, 110° C., 48 h): Y | DFX degradation ([4]; Triethylamine (NEt3)): less than 5% | DFX degradation, highest extent ([4]; inorganic bases K2CO3, NaOH, CsCO3, after 48 h): ≤ 21% | stability under hydrogenation conditions ([5]; 40 bar of H2, 70° C., 24 h): remained stable | stability under hydrogenation conditions ([5]; 40 bar of H2, 250° C., 3 h): remained stable
